Data as given in patent publication US20050203169A1, “Methods and compositions for treating diseases associated with excesses in ACE” (priority 2001, published 2005).
Read-outs that look alike come from different tables or passages of the source.

Columns and labels:
[1] = system: patient with end-stage COPD; test: Outcome for patient with COPD on ramipril
hemodialysis patients = test: Ramipril in hemodialysis patients with ESRD due to hypertension; type: in vivo, human; settings: 5 mg/day; two black hemodialysis patients
[2] = biological target: ACE (hydrophobic and hydrophilic active site) (Homo sapiens, UniProt P12821); settings: cited from earlier work
new cases of NIDDM = settings: HOPE study (NEJM Jan. 21, 2000); cited from earlier work
circulating ACE = biological target: T1, circulating ACE (Homo sapiens, UniProt P12821); settings: cited from earlier work; for circulating ACE inhibited: 5 mg dose; for inhibition of enzyme activity: equal amount (5 mg)
T1 construct: from tissue; host or cells: circulation (blood, plasma or serum) of dosed subjects

serum potassium = system: serum potassium
Excerpt: As described above, fludrocortisone acetate ([…]) can be used to control serum K+ concentration. […] Diabetes Technology & Therapeutics. […] This can be easily achieved using […] (fludrocortisone acetate; see Table A).

[3] = system: patients with kidney failure; test: Clinical observations in patients with kidney failure; type: in vivo, human
[4] = system: patients on ACE inhibitors; settings: cited from earlier work
[5] = system: blood pressure (index of maximum tissue ACE inhibition); settings: rats, IV; cited from earlier work
[6] = compared with ramipril; cited from earlier work
[7] = system: patients with CRF (serum creatinine of at least 2 mg/dl); test: Time to Dialysis in patients with chronic renal failure; type: in vivo, human; settings: conventional Rx <40 mg/d
Experimental: Outcomes data for patients with CRF due to hypertension, determined as Time to Dialysis, for patients with serum creatinine of at least 2 mg/dl at the first clinic visit:
The following are the expected differences in outcomes for patients with CRF due to NIDDM, determined as Time to Dialysis, for patients with serum creatinine of at least 2 mg/dl at the first clinic visit:
The following are the expected differences in outcomes for patients with ADPKD, determined as Time to Dialysis, for patients with serum creatinine of at least 2 mg/di at the fist clinic visit.

ACE (hydrophobic and hydrophilic active site), sequence (P12821 30-1306): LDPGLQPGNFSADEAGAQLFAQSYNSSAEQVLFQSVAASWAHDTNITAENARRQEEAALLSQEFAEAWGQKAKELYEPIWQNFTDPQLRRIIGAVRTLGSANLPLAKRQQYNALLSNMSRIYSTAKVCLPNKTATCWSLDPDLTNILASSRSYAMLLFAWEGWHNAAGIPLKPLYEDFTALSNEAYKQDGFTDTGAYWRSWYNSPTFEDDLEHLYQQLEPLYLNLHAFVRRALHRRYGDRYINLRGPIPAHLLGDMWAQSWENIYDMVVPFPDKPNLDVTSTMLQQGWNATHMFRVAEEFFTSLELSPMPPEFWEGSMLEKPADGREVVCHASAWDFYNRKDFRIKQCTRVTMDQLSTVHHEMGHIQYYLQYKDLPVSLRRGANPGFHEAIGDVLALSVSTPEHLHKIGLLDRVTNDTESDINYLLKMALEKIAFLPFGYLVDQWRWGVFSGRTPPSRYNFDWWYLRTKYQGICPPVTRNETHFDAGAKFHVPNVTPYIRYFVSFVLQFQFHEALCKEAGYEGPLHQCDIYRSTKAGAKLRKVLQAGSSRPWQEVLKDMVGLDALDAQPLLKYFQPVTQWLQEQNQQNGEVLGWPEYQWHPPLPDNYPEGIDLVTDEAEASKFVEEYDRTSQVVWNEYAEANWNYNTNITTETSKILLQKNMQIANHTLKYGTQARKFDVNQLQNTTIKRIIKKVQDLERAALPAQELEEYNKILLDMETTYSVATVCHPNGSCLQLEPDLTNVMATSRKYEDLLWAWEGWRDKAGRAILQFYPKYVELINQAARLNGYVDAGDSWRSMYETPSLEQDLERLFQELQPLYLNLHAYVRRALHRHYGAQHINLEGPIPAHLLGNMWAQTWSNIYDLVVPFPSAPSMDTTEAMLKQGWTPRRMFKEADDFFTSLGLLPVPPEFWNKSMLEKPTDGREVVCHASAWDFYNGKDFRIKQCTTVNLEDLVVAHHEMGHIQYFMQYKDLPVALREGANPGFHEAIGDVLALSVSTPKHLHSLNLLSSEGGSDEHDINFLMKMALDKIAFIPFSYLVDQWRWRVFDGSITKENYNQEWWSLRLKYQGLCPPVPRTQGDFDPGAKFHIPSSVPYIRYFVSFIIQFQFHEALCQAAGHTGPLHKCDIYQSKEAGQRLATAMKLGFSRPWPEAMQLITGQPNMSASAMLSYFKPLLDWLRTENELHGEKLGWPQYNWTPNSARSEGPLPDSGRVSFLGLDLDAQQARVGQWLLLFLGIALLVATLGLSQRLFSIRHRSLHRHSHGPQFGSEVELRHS
T1 sequence (P12821 30-1232 limits assumed): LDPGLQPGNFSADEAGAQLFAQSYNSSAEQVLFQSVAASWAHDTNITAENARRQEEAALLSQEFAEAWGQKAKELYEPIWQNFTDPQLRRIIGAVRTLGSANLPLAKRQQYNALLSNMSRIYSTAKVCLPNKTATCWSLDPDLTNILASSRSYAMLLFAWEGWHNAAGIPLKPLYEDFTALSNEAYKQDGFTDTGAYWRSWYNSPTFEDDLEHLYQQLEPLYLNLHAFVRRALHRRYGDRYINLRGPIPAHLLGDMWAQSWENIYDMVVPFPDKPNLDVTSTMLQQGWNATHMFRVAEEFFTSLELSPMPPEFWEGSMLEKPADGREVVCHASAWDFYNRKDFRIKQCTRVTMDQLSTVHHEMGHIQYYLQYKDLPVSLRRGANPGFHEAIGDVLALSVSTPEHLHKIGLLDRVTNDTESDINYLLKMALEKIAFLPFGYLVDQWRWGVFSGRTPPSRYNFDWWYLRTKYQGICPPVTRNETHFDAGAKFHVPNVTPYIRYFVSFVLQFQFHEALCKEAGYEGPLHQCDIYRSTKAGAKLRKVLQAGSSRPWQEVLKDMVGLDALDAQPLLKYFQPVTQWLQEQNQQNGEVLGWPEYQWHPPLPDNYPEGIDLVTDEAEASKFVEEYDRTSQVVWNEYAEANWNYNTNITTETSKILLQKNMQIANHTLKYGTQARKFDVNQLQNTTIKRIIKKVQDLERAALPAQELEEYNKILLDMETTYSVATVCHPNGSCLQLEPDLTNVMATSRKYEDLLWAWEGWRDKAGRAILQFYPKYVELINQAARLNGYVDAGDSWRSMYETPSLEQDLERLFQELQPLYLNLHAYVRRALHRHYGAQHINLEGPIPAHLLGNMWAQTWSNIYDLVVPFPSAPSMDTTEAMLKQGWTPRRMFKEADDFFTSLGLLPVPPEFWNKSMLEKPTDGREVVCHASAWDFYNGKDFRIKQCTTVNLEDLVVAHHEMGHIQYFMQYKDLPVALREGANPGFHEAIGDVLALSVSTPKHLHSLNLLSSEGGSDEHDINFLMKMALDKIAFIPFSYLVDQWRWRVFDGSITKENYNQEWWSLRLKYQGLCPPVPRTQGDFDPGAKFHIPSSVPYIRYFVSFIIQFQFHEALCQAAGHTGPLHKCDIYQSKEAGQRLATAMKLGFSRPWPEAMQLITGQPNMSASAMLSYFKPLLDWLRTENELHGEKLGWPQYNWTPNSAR

CCOC(=O)C1=C(COCCN)NC(C)=C(C(=O)OC)C1c1ccccc1Cl (stereo not drawn) [Amlodipine]
adverse event when added for BP control ([1]; COPD patient on ramipril): Developed CHF

CCOC(=O)[C@H](CCc1ccccc1)N[C@@H](C)C(=O)N1[C@H](C(=O)O)C[C@@H]2CCC[C@@H]21 [ramipril]
serum glucose (hemodialysis patients): 40 mg/dL | serum potassium (hemodialysis patients): above 6 mEq/l | FEV1 ([1]; 8/99, baseline 0.87 L): 0.83 L | BP ([1]; currently on 600 mg/d): 135/80 | effect on pulmonary hypertension ([1]; emphysema (COPD)): appears to lower pulmonary hypertension | non-fluid weight gain ([1]; human, in vivo): 25 lb. | hospitalization ([1]; period of over five years): Hospitalized for CHF but not for COPD | BP ([1]; two weeks after start of 2.5 mg/d, first seen with BP 104/60): 180/110 | off-rate t(1/2) ([2]; hydrophobic active site): ~24 h | new cases of NIDDM (new cases of NIDDM): prevention of new cases of NIDDM | circulating ACE inhibited (circulating ACE): 97% | inhibition of enzyme activity (circulating ACE): greater than 95%

CC(=O)OCC(=O)[C@@]1(O)CC[C@H]2[C@@H]3CCC4=CC(=O)CC[C@]4(C)[C@@]3(F)[C@@H](O)C[C@@]21C [Florinef, fludrocortisone acetate]
volume (fluid) retention (serum potassium; in vivo): # retention and congestive heart failure. Clinical observation indicates that volume retention occurs with daily FLORINEF but not with less-than-daily use, even up to five times a week. | serum potassium under adequate control (serum potassium; same daily dose despite higher dose of ACE inhibitor): below 5.3 mEq/l | control of serum potassium (serum potassium; up to 0.1 mg daily, chronic renal failure patients on high dose ACE inhibitor (e.g. 2 mg/kg/day quinapril)): could control serum potassium

CCOC(=O)[C@H](CCc1ccccc1)N[C@@H](C)C(=O)N1Cc2ccccc2C[C@H]1C(=O)O [quinapril]
serum creatinine on treatment ([3]; Patient, 20 mg/day given hs, decreased from 4.5): 1.7 mg/di | slowing down kidney failure ([3]; comparison of quinapril with ramipril): superior to RAMIPRIL | dose-toxicity curve ([4]; from 5 mg/day to 80 mg/day): flat | patients with elevation of mood ([4]; use by 12,000 patients): 20% | off-rate t(1/2) ([2]; hydrophobic active site): ~24 h | dose at which maximum blood pressure lowering occurred [5]: 3 mg/kg | octanol: water partition coefficient [6]: higher | Time to Dialysis ([7]; ADPKD, Caucasian men): 8.8 yr | Time to Dialysis ([7]; CRF due to NIDDM, African American men): 3.3 yr | Time to Dialysis ([7]; CRF due to NIDDM, Caucasian men): 2.7 yr | Time to Dialysis ([7]; CRF due to hypertension, African American men): 3.6 yr | Time to Dialysis ([7]; CRF due to hypertension, Caucasian men): 4.3 yr

CCOC(=O)[C@H](CCc1ccccc1)N[C@@H](C)C(=O)N1CCC[C@H]1C(=O)O [enalapril]
off-rate t(1/2) ([2]; hydrophilic site in the circulating form of the enzyme): ~4 h | circulating ACE inhibited (circulating ACE): 47% | inhibition of enzyme activity (circulating ACE): 50%

CCCCc1nc(Cl)c(CO)n1Cc1ccc(-c2ccccc2-c2nn[nH]n2)cc1 [Losartan]
benefit when added to QUINAPRIL ([3]; 50 mg/day, patients with kidney failure): no added benefit | effect on serum potassium (serum potassium; combined with an ACE inhibitor): elevation of serum potassium
